Experimental findings from US9249151B2, “Bis-amido pyridines” (Boehringer Ingelheim International GmbH, priority 2013, dated 2016) are described below.

Structures are written as SMILES.

The target of the first assay is BIR3 domain of human cIAP1 (amino acids 256 to 363; cIAP1 BIR3) (Homo sapiens (Human), UniProt Q13490). Put plainly: cIAP1 BIR3 binding assay (DELFIA).
BIR3 domain of human cIAP1 (amino acids 256 to 363; cIAP1 BIR3), sequence (Q13490 256-363): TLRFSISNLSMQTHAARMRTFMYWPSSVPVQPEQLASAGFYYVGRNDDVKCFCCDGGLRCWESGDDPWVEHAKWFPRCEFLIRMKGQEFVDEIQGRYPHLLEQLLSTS
Details: not given
As for the experimental part: XIAP BIR3 and cIAP1 BIR3 Binding Assays (DELFIA)
Peptide […]-Lys(Biotin), representing the N-terminus of mature human SMAC (SMAC peptide), was used as interaction partner in the protein-peptide interaction assay.
BIR3 domains (10 nM) were incubated with SMAC peptide (10 nM) in assay buffer (50 mM Tris, 120 mM NaCl, 0.1% BSA, 1 mM DTT, 0.05% TritonX100) for one hour at room temperature in the presence of inhibitory compounds. The assay mixture was transferred to a streptavidin coated plate and incubated for one hour at room temperature to allow binding of the biotinylated peptide and associated BIR3 domains to the plate. After several washing steps Eu labeled anti-GST antibody (e.g. Perkin Elmer DELFIA Eu-N1-antiGST AD0250) was added to detect BIR3 domain-SMAC peptide interactions m according to Perkin Elmer's instructions. […] Time resolved Europium fluoresecence was measured in a Wallac Victor using Standard assay settings.
DELFIA assay results were plotted against compound concentrations and Software GraphPad Prizm was used to calculate half maximal inhibitory concentrations (IC50 values).
For orientation: IC50 means the point on the concentration scale where inhibition reaches its midpoint. Take `CNC(C)C(=O)Nc1cc(-c2c(OC)ccc3cc(C#N)ccc23)cc(NC(=O)c2ccc(Cl)cn2)n1` (centres unmarked) [Example 25, 5-chloro-N-[4-(6-cyano-2-methoxynaphihalen-1-yl)-6-[2-(methylamino)propanamido]-pyridin-2-yl]pyridine-2-carboxamide]: the half-inhibitory concentration (IC50) came out at 0.047 µM.

The assay is the same for the next values; noted with them: BIR3 domain 10 nM, SMAC peptide 10 nM; values represent the (S)-isomers; * = racemic compound; read-out: cIAP1 BIR-3 IC50.
Take `CNC(C)C(=O)Nc1cc(-c2cccc3c2c(C)nn3C)cc(NC(=O)c2ccc(Cl)cn2)n1` (centres unmarked) [Example 13, 5-chloro-N-[4-(1,3-dimethyl-1H-indazol-4-yl)-6-[2-(methylamino)propanamido]-pyridin-2-yl]pyridine-2-carboxamide]: the IC50 came to 0.002 µM. On the same count and under the same terms, the figure for `CNC(C)C(=O)Nc1cc(-c2ncnc3cccc(F)c23)cc(NC(=O)c2ccc(Cl)cn2)n1` (centres unmarked) [Example 14, 5-chloro-N-[4-(5-fluoroquinazolin-4-yl)-6-[2-(methylamino)propanamido]-pyridin-2-yl]pyridine-2-carboxamide] is 0.001 µM; for `CNC(C)C(=O)Nc1cc(-c2ncnc3oc(C)c(C)c23)cc(NC(=O)c2ccc(Cl)cn2)n1` (centres unmarked) [Example 15, 5-chloro-N-(4-{5,6-dimethylfuro[2,3-d]pyrimidin-4-yl}-6-[2-(methylamino)propanamido]-pyridin-2-yl)pyridine-2-carboxamide] it is 0.001 µM. As for `CNC(C)C(=O)Nc1cc(-c2ncnc3nc(C)n(C)c23)cc(NC(=O)c2ccc(Cl)cn2)n1` (centres unmarked) [Example 16, 5-chloro-N-[4-(7,8-dimethyl-7H-purin-6-yl)-6-[2-(methylamino)propanamido]-pyridin-2-yl]pyridine-2-carboxamide], the IC50 amounted to 0.001 µM. For `CNC(C)C(=O)Nc1cc(-c2nn(C)c3ncnc(N)c23)cc(NC(=O)c2ccccn2)n1` (centres unmarked) [Example 17, N-(4-{4-amino-1-methyl-1H-pyrazolo[3,4-d]pyrimidin-3-yl}-6-[2-(methylamino)propanamido]-pyridin-2-yl)pyridine-2-carboxamide], the IC50 was found to be 0.095 µM. On the same count and under the same terms, the figure for `CNC(C)C(=O)Nc1cc(-c2cnc3cccc(Cl)n23)cc(NC(=O)c2ccc(Cl)cn2)n1` (centres unmarked) [Example 18, 5-chloro-N-(4-{5-chloroimidazo[1,2-a]pyridin-3-yl}-6-[2-(methylamino)propanamido]-pyridin-2-yl)pyridine-2-carboxamide] is 0.001 µM; for `CNC(C)C(=O)Nc1cc(-c2c(OC)ccc3ccccc23)cc(NC(=O)c2ccc(Cl)cn2)n1` (centres unmarked) [Example 19, 5-chloro-N-[4-(2-methoxynaphthalen-1-yl)-6-[2-(methylamino)propanamido]-pyridin-2-yl]pyridine-2-carboxamide] it is 0.225 µM. In the case of `CNC(C)C(=O)Nc1cc(-c2c(OC)ccc3nccnc23)cc(NC(=O)c2ccc(Cl)cn2)n1` (centres unmarked) [Example 20, 5-chloro-N-[4-(6-methoxyquinoxalin-5-yl)-6-[2-(methylamino)propanamido]-pyridin-2-yl]pyridine-2-carboxamide], the half-maximal inhibitory concentration (IC50) came to 0.05 µM.

Consider `CNC(C)C(=O)Nc1cc(-c2nc(C)nc3c(C)nn(C)c23)cc(NC(=O)c2ccc(Cl)cn2)n1` (centres unmarked) [Example 21, 5-chloro-N-{6-[2-(methylamino)propanamido]-4-{trimethyl-1H-pyrazolo[4,3-d]pyrimidin-7-yl}pyridin-2-yl}pyridine-2-carboxamide], for which the IC50 came to 0.001 µM. The same measure, in the same setting: the figure for `CNC(C)C(=O)Nc1cc(-c2ncnc3cccc(Cl)c23)cc(NC(=O)c2ccc(Cl)cn2)n1` (centres unmarked) [Example 22, 5-chloro-N-[4-(5-chloroquinazolin-4-yl)-6-[2-(methylamino)propanamido]-pyridin-2-yl]pyridine-2-carboxamide] is 0.001 µM. The same measure, in the same setting: the result for `CNC(C)C(=O)Nc1cc(-c2ccnc3cc(F)cc(F)c23)cc(NC(=O)c2ccc(Cl)cn2)n1` (centres unmarked) [Example 23, 5-chloro-N-[4-(5,7-difluoroquinolin-4-yl)-6-[2-(methylamino)propanamido]-pyridin-2-yl]pyridine-2-carboxamide] reads 0.008 µM; that for `CNC(C)C(=O)Nc1cc(-c2c(OC)ccc3nccc(C)c23)cc(NC(=O)c2ccc(Cl)cn2)n1` (centres unmarked) [Example 24, 5-chloro-N-[4-(6-methoxy-4-methylquinolin-5-yl)-6-[2-(methylamino)propanamido]-pyridin-2-yl]pyridine-2-carboxamide], 0.001 µM.

Regarding `CNC(C)C(=O)Nc1cc(-c2c(C)nc(C)c3c(=O)n(C)n(C)c23)cc(NC(=O)c2ccc(Cl)cn2)n1` (centres unmarked) [Example 26, 5-chloro-N-{6-[2-(methylamino)propanamido]-4-{1,2,4,6-tetramethyl-3-oxo-1H,2H,3H-pyrazolo[4,3-c]pyridin-7-yl}pyridin-2-yl}pyridine-2-carboxamide], the IC50 turned out to be 0.001 µM.

In the case of `CNC(C)C(=O)Nc1cc(-c2c(Cl)c(C)nc3cc(Cl)cc(Cl)c23)cc(NC(=O)c2ccc(Cl)cn2)n1` (centres unmarked) [Example 27, 5-chloro-N-{6-[2-(methylamino)propanamido]-4-(3,5,7-trichloro-2-methylquinolin-4-yl)pyridin-2-yl}pyridine-2-carboxamide], the IC50 was determined as 0.018 µM. Consider `CNC(C)C(=O)Nc1cc(-c2c(C)ccc3ncccc23)cc(NC(=O)c2cc3c(cn2)COC3)n1` (centres unmarked) [Example 28, N-{6-[2-(methylamino)propanamido]-4-(6-methylquinolin-5-yl)pyridin-2-yl}-1H,3H-furo[3,4-c]pyridine-6-carboxamide], for which the IC50 worked out at 0.031 µM. The same measure, in the same setting: the result for `CNC(C)C(=O)Nc1cc(-c2c(C)ccc3ncccc23)cc(NC(=O)c2ccc(C)cn2)n1` (centres unmarked) [Example 29, 5-methyl-N-{6-[2-(methylamino)propanamido]-4-(6-methylquinolin-5-yl)pyridin-2-yl}pyridine-2-carboxamide] reads 0.028 µM; that for `CNC(C)C(=O)Nc1cc(-c2c(C)ccc3ncccc23)cc(NC(=O)c2ccc(C#N)cn2)n1` (centres unmarked) [Example 30, 5-cyano-N-{6-[2-(methylamino)propanamido]-4-(6-methylquinolin-5-yl)pyridin-2-yl}pyridine-2-carboxamide], 0.036 µM; that for `CNC(C)C(=O)Nc1cc(-c2c(C)ccc3ncccc23)cc(NC(=O)c2ncc3ccccc3n2)n1` (centres unmarked) [Example 31, N-{6-[2-(methylamino)propanamido]-4-(6-methylquinolin-5-yl)pyridin-2-yl}quinazoline-2-carboxamide], 0.052 µM.

Consider `CNC(C)C(=O)Nc1cc(-c2c(C)ccc3ncccc23)cc(NC(=O)c2ccc(F)cn2)n1` (centres unmarked) [Example 32, 5-fluoro-N-{6-[2-(methylamino)propanamido]-4-(6-methylquinolin-5-yl)pyridin-2-yl}pyridine-2-carboxamide], for which the IC50 is 0.053 µM. The same measure, in the same setting: the result for `CNC(C)C(=O)Nc1cc(-c2c(C)ccc3ncccc23)cc(NC(=O)c2ccc(OC)cn2)n1` (centres unmarked) [Example 33, 5-methoxy-N-{6-[2-(methylamino)propanamido]-4-(6-methylquinolin-5-yl)pyridin-2-yl}pyridine-2-carboxamide] reads 0.059 µM. On to `CNC(C)C(=O)Nc1cc(-c2c(C)ccc3ncccc23)cc(NC(=O)c2cnc(C)cn2)n1` (centres unmarked) [Example 34, 5-methyl-N-{6-[2-(methylamino)propanamido]-4-(6-methylquinolin-5-yl)pyridin-2-yl}pyrazine-2-carboxamide], for which the IC50 worked out at 0.104 µM.

With `CNC(C)C(=O)Nc1cc(-c2c(C)ccc3ncccc23)cc(NC(=O)c2cc3ccccc3cn2)n1` (centres unmarked) [Example 35, N-{6-[2-(methylamino)propanamido]-4-(6-methylquinolin-5-yl)pyridin-2-yl}isoquinoline-3-carboxamide], the IC50 came out at 0.132 µM. Same read-out and setting: the figure for `CNC(C)C(=O)Nc1cc(-c2c(C)ccc3ncccc23)cc(NC(=O)c2ccc3ccccc3n2)n1` (centres unmarked) [Example 36, N-{6-[2-(methylamino)propanamido]-4-(6-methylquinolin-5-yl)pyridin-2-yl}quinoline-2-carboxamide] is 0.17 µM. The same measure, in the same setting: the result for `CNC(C)C(=O)Nc1cc(-c2c(C)ccc3ncccc23)cc(NC(=O)c2ccncn2)n1` (centres unmarked) [Example 37, N-{6-[2-(methylamino)propanamido]-4-(6-methylquinolin-5-yl)pyridin-2-yl)pyrimidine-4-carboxamide] reads 0.428 µM. Take `CNC(C)C(=O)Nc1cc(-c2c(C)ccc3ncccc23)cc(NC(=O)c2cc3ccccc3o2)n1` (centres unmarked) [Example 38, N-{6-[2-(methylamino)propanamido]-4-(6-methylquinolin-5-yl)pyridin-2-yl)-1-benzofuran-2-carboxamide]: the IC50 came out at 0.514 µM. Turning to `CNC(C)C(=O)Nc1cc(-c2c(C)ccc3ncccc23)cc(NC(=O)c2ccccn2)n1` (centres unmarked) [Example 39, N-{6-[2-(methylamino)propanamido]-4-(6-methylquinolin-5-yl)pyridin-2-yl}pyridine-2-carboxamide], the IC50 amounted to 0.553 µM. As for `CNC(C)C(=O)Nc1cc(-c2c(C)ccc3ncccc23)cc(NC(=O)c2cccc(C)n2)n1` (centres unmarked) [Example 40, 6-methyl-N-{6-[2-(methylamino)propanamido]-4-(6-methylquinolin-5-yl)pyridin-2-yl}pyridine-2-carboxamide], the IC50 was 0.598 µM.

In the case of `CNC(C)C(=O)Nc1cc(-c2c(C)ccc3ncccc23)cc(NC(=O)c2ccn(C)n2)n1` (centres unmarked) [Example 41, 1-methyl-N-{6-[2-(methylamino)propanamido]-4-(6-methylquinolin-5-yl)pyridin-2-yl}-1H-pyrazole-3-carboxamide], the IC50 came to 0.703 µM.
